Assay results reported in US10919941B2, “Functional lipid constructs” (KODE BIOTECH LIMITED, priority 2007, dated 2021).
No end group written: not given here.

How the values were obtained:
[1] = tested on: Miltenberger Antibody Positive Panel; test: Reactivity of modified RBCs against the Miltenberger Antibody Positive Panel; type: cell-based, human; set-up: key to score vs panel 15 TAP2 / score vs panel 4 T7202 / score vs panel 8 T5896 / score vs panel 2 T217 / score vs panel 3 T165 / score vs panel 14 TAP1 / score vs panel 10 Mia / score vs panel 11 Mur / score vs panel 12 Gam / score vs panel 6 T6025 / score vs panel 7 T8445 / score vs panel 9 MIII / score vs panel 13 BoxH / reactivity with Panel Serum #7 (T8445) / agglutination score, Panel Serum #7 (T8445): 0 or ‘−’ no agglutination; 0 or ‘−’ no agglutination; 1+ or 3=very weak agglutination; 1+ or 3=very weak agglutination; 2+ or 5=weak agglutination; 2+ or 5=weak agglutination; 3+ or 8=moderate strong agglutination; 3+ or 8=moderate strong agglutination; 4+ or 10/12=strong agglutination; 4+ or 10/12=strong agglutination; 4+ or 10/12=strong agglutination; settings: for agglutination score, Panel Serum #7 (T8445): cells modified at 50 μg/ml, 2 hour 37° C., BioVue AHG cards; for reactivity with Panel Serum #7 (T8445): construct 50 μg/ml (2 hours, 37° C.)
Method: Red blood cells are modified by mixing 1 part by volume of washed packed red blood cells with 1 part by volume of peptide-lipid construct dispersed at a concentration of 10 to 1000 pg/ml in cell media (Celpresol™).
The suspensions are either: • 1. incubated for 2 hours at 37° C. before being washed and suspended in a cell medium for serological analysis at a concentration of 0.8 to 3% (Method 1); or • 2. incubated for 3 to 4 hours at room temperature (circa 25° C.) followed by 18 hours at 4° C. before being washed and suspended in a cell medium for serological analysis at a concentration of 0.8 to 3% (Method 2).
Serological reactions are graded or scored by either of two established systems (0 or ‘−’ no agglutination, 1+ or 3=very weak agglutination, 2+ or 5=weak agglutination, 3+ or 8=moderate strong agglutination, 4+ or 10/12=strong agglutination)
Serological platforms used are Tube (addition of reagents and reactants into plastic or glass serology tubes and after appropriate incubations, washing and centrifugation observing reactions macroscopically by eye and a 10× magnification eyepiece and scoring) and BioVue™ (addition of reactants into cassettes containing beads (including some reactants) and after appropriate incubations and centrifugation observing the reaction patterns trapped within the Gel matrix). BioVue is the serological column agglutination platform of Ortho-Clinical Diagnostics. Diamed is the serological column agglutination platform of Diamed AG.

[2] = tested on: antibody negative serums; test: False positive reactions of modified RBCs with antibody negative serums/plasma; type: cell-based, human; set-up: key to Reaction score BioVue AHG, PAC samples 1-46, 49, 50, 52, 53 / Reaction score BioVue AHG, PAC sample 47 / Reaction score BioVue AHG, PAC sample 48 / Reaction score BioVue AHG, PAC sample 51 / agglutination score, T series serum 2 / agglutination score, T series serum 42 / agglutination score, T series serum 63 / agglutination score, T series serum 62 / agglutination score, T series serum 7 / agglutination score, T series serum 20 / agglutination score, T series serum 48 / agglutination score, T series serum 22 / agglutination score, T series serum 39 / agglutination score, T series serum 23 / agglutination score, T series serum 30 / agglutination score, T series serum 4 / agglutination score, T series serum 31 / agglutination score, T series serum 44 / agglutination score, T series serum 61 / agglutination score, T series serum 18 / agglutination score, T series serum 21 / agglutination score, T series serum 28 / agglutination score, T series serum 55 / agglutination score, false positive serum T18 / agglutination score, false positive serum T21 / agglutination score, false positive serum T28 / agglutination score, false positive serum T55 / agglutination score, false positive serum T78 / agglutination score, false positive serum T92: 0 or ‘−’ no agglutination; 0 or ‘−’ no agglutination; 1+ or 3=very weak agglutination; 1+ or 3=very weak agglutination; 2+ or 5=weak agglutination; 2+ or 5=weak agglutination; 3+ or 8=moderate strong agglutination; 3+ or 8=moderate strong agglutination; 4+ or 10/12=strong agglutination; 4+ or 10/12=strong agglutination; 4+ or 10/12=strong agglutination; settings: larger series = 102; cells modified at 50 μg/ml, 2 hour 37° C.; BioVue AHG cards

Row | Substance | score vs panel 2 T217 ([1]; Table 9, construct 50 μg/ml) | score vs panel 3 T165 ([1]; Table 9, construct 50 μg/ml) | score vs panel 4 T7202 ([1]; Table 9, construct 50 μg/ml) | score vs panel 6 T6025 ([1]; Table 9, construct 50 μg/ml) | score vs panel 7 T8445 ([1]; Table 9, construct 50 μg/ml) | score vs panel 8 T5896 ([1]; Table 9, construct 50 μg/ml) | score vs panel 9 MIII ([1]; Table 9, construct 50 μg/ml) | score vs panel 10 Mia ([1]; Table 9, construct 50 μg/ml) | score vs panel 11 Mur ([1]; Table 9, construct 50 μg/ml) | score vs panel 2 T217 ([1]; Table 9, construct 100 μg/ml) | score vs panel 3 T165 ([1]; Table 9, construct 100 μg/ml) | score vs panel 4 T7202 ([1]; Table 9, construct 100 μg/ml) | score vs panel 6 T6025 ([1]; Table 9, construct 100 μg/ml) | score vs panel 7 T8445 ([1]; Table 9, construct 100 μg/ml) | score vs panel 8 T5896 ([1]; Table 9, construct 100 μg/ml) | score vs panel 9 MIII ([1]; Table 9, construct 100 μg/ml) | score vs panel 10 Mia ([1]; Table 9, construct 100 μg/ml) | score vs panel 11 Mur ([1]; Table 9, construct 100 μg/ml) | score vs panel 12 Gam ([1]; Table 9, construct 100 μg/ml) | agglutination score, Panel Serum #7 (T8445) [1] | further results
1 | M14: DOPE peptide-lipid construct: Mur peptide DTYPAHTANEVSE, leader c, spacer CMG(2) (DTYPAHTANEVSEC; also: DOPE peptide-lipid construct via leader Cys, spacer CMG(2)) | 0 | 10 | 3 | 5 | 8 | 0 | 0 | 0 | 0 | 3 | 10 | 5 | 10 | 5 | 0 | 0 | 0 | 0 | – | – | score vs panel 2 T217 ([1]; Table 9, construct 10 μg/ml): 0; score vs panel 3 T165 ([1]; Table 9, construct 10 μg/ml): 10; score vs panel 4 T7202 ([1]; Table 9, construct 10 μg/ml): 0; score vs panel 6 T6025 ([1]; Table 9, construct 10 μg/ml): 8; score vs panel 7 T8445 ([1]; Table 9, construct 10 μg/ml): 5; score vs panel 8 T5896 ([1]; Table 9, construct 10 μg/ml): 0; score vs panel 9 MIII ([1]; Table 9, construct 10 μg/ml): 0; score vs panel 10 Mia ([1]; Table 9, construct 10 μg/ml): 0; score vs panel 11 Mur ([1]; Table 9, construct 10 μg/ml): 0; score vs panel 13 BoxH ([1]; Table 9, construct 10 μg/ml): 0; score vs panel 13 BoxH ([1]; Table 9, construct 100 μg/ml): 0
2 | M16: DOPE peptide-lipid construct: Mur peptide TYPAHTANEV, leader c, spacer PEG (TYPAHTANEVC; also: DOPE peptide-lipid construct via leader Cys, spacer PEG) | – | – | – | – | – | – | – | – | – | 0 | 10 | 5 | 5 | 12 | 0 | 0 | 0 | 0 | 0 | – | score vs panel 13 BoxH ([1]; Table 9, construct 100 μg/ml): 0
3 | M18: DOPE peptide-lipid construct: Mur peptide PAHTANEV, leader c, spacer CMG(2) (PAHTANEVC; also: DOPE peptide-lipid construct via leader Cys, spacer CMG(2)) | – | – | – | – | – | – | – | – | – | 0 | 10 | 0 | 10 | 8 | 0 | 0 | 0 | 0 | 0 | – | –
4 | M19: DOPE peptide-lipid construct: Mur peptide PAHTANEV, leader c, spacer CMG(2) (PAHTANEVC; also: DOPE peptide-lipid construct via leader Cys, spacer CMG(2)) | – | – | – | – | – | – | – | – | – | 0 | 10 | 0 | 8 | 10 | 3 | 0 | 0 | 0 | 0 | 8 | reactivity with Panel Serum #7 (T8445) [1]: 8; agglutination score, false positive serum T55 [2]: 12
5 | M21: DOPE peptide-lipid construct: MUTK peptide SQTNDKHKRD, leader c, spacer CMG(2) (SQTNDKHKRDC; also: DOPE peptide-lipid construct via leader Cys, spacer CMG(2)) | – | – | – | – | – | – | – | – | – | – | – | – | – | – | – | – | – | – | – | – | score vs panel 2 T217 ([1]; Table 8, construct 200 μg/ml): 0; score vs panel 3 T165 ([1]; Table 8, construct 200 μg/ml): 8; score vs panel 4 T7202 ([1]; Table 8, construct 200 μg/ml): 0; score vs panel 6 T6025 ([1]; Table 8, construct 200 μg/ml): 8; score vs panel 7 T8445 ([1]; Table 8, construct 200 μg/ml): 0; score vs panel 8 T5896 ([1]; Table 8, construct 200 μg/ml): 0; score vs panel 9 MIII ([1]; Table 8, construct 200 μg/ml): 0; score vs panel 10 Mia ([1]; Table 8, construct 200 μg/ml): 0; score vs panel 11 Mur ([1]; Table 8, construct 200 μg/ml): 0; score vs panel 12 Gam ([1]; Table 8, construct 200 μg/ml): 3; score vs panel 15 TAP2 ([1]; Table 8, construct 200 μg/ml): 5
6 | M25: DOPE peptide-lipid construct: Mur peptide Tyr Pro Ala His Thr Ala Asn Gln, leader c, spacer CMG(2) | 0 | 3 | 0 | 0 | 3 | 0 | 0 | 0 | 0 | – | – | – | – | – | – | – | – | – | – | 3 | score vs panel 12 Gam ([1]; Table 9, construct 50 μg/ml): 0; score vs panel 15 TAP2 ([1]; Table 9, construct 50 μg/ml): 8; reactivity with Panel Serum #7 (T8445) [1]: 3; agglutination score, false positive serum T78 [2]: 5
7 | M26: DOPE peptide-lipid construct: Mur peptide YPAHTANEV, leader c, spacer CMG(2) (YPAHTANEVC; also: DOPE peptide-lipid construct via leader Cys, spacer CMG(2)) | 0 | 10 | 0 | 8 | 8 | 0 | 0 | 0 | 0 | – | – | – | – | – | – | – | – | – | – | 10 | score vs panel 12 Gam ([1]; Table 9, construct 50 μg/ml): 0; score vs panel 15 TAP2 ([1]; Table 9, construct 50 μg/ml): 3; reactivity with Panel Serum #7 (T8445) [1]: 10; agglutination score, false positive serum T18 [2]: 5; agglutination score, false positive serum T21 [2]: 10; agglutination score, false positive serum T28 [2]: 12; agglutination score, false positive serum T55 [2]: 10; agglutination score, false positive serum T78 [2]: 10; agglutination score, false positive serum T92 [2]: 12
8 | M27: DOPE peptide-lipid construct: Mur peptide TYPAHTAN, leader c, spacer CMG(2) (TYPAHTANC; also: DOPE peptide-lipid construct via leader Cys, spacer CMG(2)) | 0 | – | 10 | – | 0 | 0 | – | – | – | – | – | – | – | – | – | – | – | – | – | – | score vs panel 15 TAP2 ([1]; Table 9, construct 50 μg/ml): 0
